# Experimental data taken from US20110039762A1, “TARGETED ANTIMICROBIAL MOIETIES” (C3 JIAN, INC., priority 2009, published 2011).
# “Also recorded” adds a separate entry of the source.
# Tested on: microorganisms (e.g., bacteria, yeasts, fungi)
# Experiment: Targeting peptide binding to target microorganisms (Table 3)
# Conditions: data not shown
row,Substance,bacterial binding
1,DAANEA [BL-1],no bacterial binding

# Same assay, conditions: microorganism the targeting peptide binds; binding in aqueous buffers varied by peptide solubility, preferably 1x PBS
row,Substance,Target(s)
1,1T-63 (EPLILKELVRNLFLFCYARALR; Peptide with targeting and/or antimicrobial activity) [Peptide 1T-63],S. aureus; also recorded: S. epidermidis; also recorded: C. jeikeium; also recorded: C. xerosis; also recorded: C. striatum; also recorded: P. aeruginosa
2,1T-248 (IGGALNSCG; Peptide with targeting and/or antimicrobial activity) [Peptide 1T-248],S. sanguinis
3,1T-18 (YSKTLHFAD; Peptide with targeting and/or antimicrobial activity) [Peptide 1T-18],S. aureus; also recorded: S. epidermidis; also recorded: C. striatum; also recorded: P. aeruginosa
4,1T-44 (DPALADFAAGMRAQVRT; Peptide with targeting and/or antimicrobial activity) [Peptide 1T-44],S. mutans; also recorded: S. aureus; also recorded: S. epidermidis; also recorded: C. jeikeium; also recorded: C. striatum; also recorded: P. aeruginosa
5,1T-92 (GQDEGQRRAGVGEGQGVDG; Peptide with targeting and/or antimicrobial activity) [Peptide 1T-92],S. mitis; also recorded: S. mutans
6,1T-82 (FGVGVGIALFMAGYAIGKDLRKKFGKSC; Peptide with targeting and/or antimicrobial activity) [Peptide 1T-82],S. pneumoniae
7,1T-6 (KFINGVLSQFVLERK; Peptide with targeting and/or antimicrobial activity) [Peptide 1T-6],S. mutans
8,1T-57 (RLEYRRLETQVEENPESGRRPMRG; Peptide with targeting and/or antimicrobial activity) [Peptide 1T-57],P. aeruginosa
9,1T-35 (EICLTLVFPIRGSYSEAAKFPVPIHIVEDGTVELPK; Peptide with targeting and/or antimicrobial activity) [Peptide 1T-35],P. aeruginosa
10,1T-30 (GKAKPYQVRQVLRAVDKLETRRKKGGR; Peptide with targeting and/or antimicrobial activity) [Peptide 1T-30],S. aureus; also recorded: S. epidermidis; also recorded: C. xerosis; also recorded: C. striatum; also recorded: P. aeruginosa
11,1T-55 (NHKTLKEWKAKWGPEAVESWATLLG; Peptide with targeting and/or antimicrobial activity) [Peptide 1T-55],C. xerosis; also recorded: P. aeruginosa
12,1T-77 (EMRISRIILDFLFLRKK; Peptide with targeting and/or antimicrobial activity) [Peptide 1T-77],S. pneumoniae
13,1T-141 (KKFIILLFILVQGLIFSATKTLSDIIAL; Peptide with targeting and/or antimicrobial activity) [Peptide 1T-141],F. nucleatum; also recorded: P. gingivalis; also recorded: S. epidermidis; also recorded: S. gordonii; also recorded: S. mitis; also recorded: S. mutans; also recorded: S. oralis; also recorded: S. sanguinis
14,1T-79 (FGTPWSITNFWKKNFNDRPDFDSDRRRY; Peptide with targeting and/or antimicrobial activity) [Peptide 1T-79],S. pneumoniae
15,TT-307 (NGDKKAKEELDKWDEVIKELNIQF; Peptide with targeting and/or antimicrobial activity),F. nucleatum
16,1T-51 (GKPKRMPAEFIDGYGQALLAGA; Peptide with targeting and/or antimicrobial activity) [Peptide 1T-51],S. aureus; also recorded: P. aeruginosa
17,1T-68 (GGTKEIVYQRG; Peptide with targeting and/or antimicrobial activity) [Peptide 1T-68],S. mutans; also recorded: S. aureus; also recorded: C. jeikeium; also recorded: C. xerosis; also recorded: C. striatum; also recorded: P. aeruginosa
18,1T-139 (AVAGAAVGALLGNDARSTAVGAAIGGALGAGAGELTKNK; Peptide with targeting and/or antimicrobial activity) [Peptide 1T-139],A. naeslundii; also recorded: S. gordonii; also recorded: S. mitis; also recorded: S. mutans; also recorded: S. oralis
19,1T-95 (GHLLRVGGRVGGVGGVAGACAQPFGGQ; Peptide with targeting and/or antimicrobial activity) [Peptide 1T-95],S. gordonii; also recorded: S. mitis; also recorded: S. mutans; also recorded: S. oralis; also recorded: S. sanguinis

# Same assay, conditions: microorganism(s) the targeting peptide binds; binding in aqueous buffers depending on peptide solubility, preferably 1x PBS
row,Substance,Target(s)
1,PF-221 (VFDNIDINF; Peptide with targeting and/or antimicrobial activity),S. epidermidis; also recorded: M. luteus; also recorded: P. aeruginosa
2,PF-285 (VPAKLLRVIDEIPE; Peptide with targeting and/or antimicrobial activity),S. mutans
3,PF-267 (SDDKRTD; Peptide with targeting and/or antimicrobial activity),M. luteus
4,PF-279 (SHIGFISISACLAVLLGIARLFVWTWVKFFA; Peptide with targeting and/or antimicrobial activity),S. mutans; also recorded: S. epidermidis; also recorded: M. luteus; also recorded: E. coli; also recorded: P. aeruginosa; also recorded: A. baumannii
5,PF-248 (ILSKLWFWMINSLGVVLLVSYWLLAKWGVA; Peptide with targeting and/or antimicrobial activity),S. mutans; also recorded: S. epidermidis; also recorded: M. luteus; also recorded: E. coli; also recorded: P. aeruginosa; also recorded: A. baumannii
6,PF-365 (LYKQKIQLEEELEKLKDDRQ; Peptide with targeting and/or antimicrobial activity),S. epidermidis; also recorded: B. subtilis; also recorded: B. fragilis; also recorded: P. aeruginosa; also recorded: C. albicans
7,PF-359 (MTVMEDPGSEQRNKIQSPMKGEDFSALFGR; Peptide with targeting and/or antimicrobial activity),S. epidermidis and B. fragilis and P. aeruginosa and C. albicans and MRSA and E. faecalis and C. jeikeium
8,PF-324 (HFSLL; Peptide with targeting and/or antimicrobial activity),C. difficile
9,PF-230 (EDKPTNTIQEIKPVKWQ; Peptide with targeting and/or antimicrobial activity),S. mutans
10,PF-284 (MRYITYSLIPRLLSKKVIHQQ; Peptide with targeting and/or antimicrobial activity),C. difficile
11,PF-181 (GIAPRRNEWGAVGGR; Peptide with targeting and/or antimicrobial activity),S. epidermidis and M. luteus and E. coli and MRSA and E. faecalis and C. jeikeium

# Same assay, conditions: microorganism(s) the targeting peptide binds; peptide binding conducted in aqueous buffers varied by peptide solubility, preferably 1x PBS
row,Substance,Target(s)
1,PF-388 (ITPLLDEIGKVCIDKISK; Peptide with targeting and/or antimicrobial activity),E. faecalis; also recorded: C. jeikeium; also recorded: C. jejuni
2,PF-489 (KVDRVSTTITEKIK; Peptide with targeting and/or antimicrobial activity),S. mutans
3,PF-481 (DELYEIMDKVIEEFNKDIEQNNNNGNNEDLTENKIN; Peptide with targeting and/or antimicrobial activity),C. jeikeium

# Same assay, conditions: peptide binding in aqueous buffers varied by peptide solubility; preferably 1x PBS
row,Substance,Target(s) (microorganisms bound by the targeting peptide)
1,PF-C080 (INIPGLF; Peptide with targeting and/or antimicrobial activity),A. naeslundii; also recorded: F. nucleatum; also recorded: S. mutans
2,PF-C259 (AEIQPHCLSVL; Peptide with targeting and/or antimicrobial activity),F. nucleatum; also recorded: S. mutans
3,PF-669 (RADRIESYPADGDRVITLWRNPYR; Peptide with targeting and/or antimicrobial activity),Mycobacteria spp
4,PF-785 (MRPQHSPAGKAFVVKKITHEQS; Peptide with targeting and/or antimicrobial activity),Mycobacteria spp.
5,PF-676 (AEYRGL; Peptide with targeting and/or antimicrobial activity),S. mutans; also recorded: E. coli
6,PF-777 (PGADGKLAEASAAIARLVRS; Peptide with targeting and/or antimicrobial activity),Mycobacteria spp.
7,PF-706 (LGYGAWIGCGLGLNGFHRID; Peptide with targeting and/or antimicrobial activity),L. pneumophila
8,PF-712 (QIYRHVHKVQAKSANLRLY; Peptide with targeting and/or antimicrobial activity),S. mutans; also recorded: E. coli
9,PF-C285 (FTIIELKKQKIKHGENNKKTAHPLNEPFCARA; Peptide with targeting and/or antimicrobial activity),A. naeslundii; also recorded: F. nucleatum; also recorded: P. gingivalis; also recorded: S. mutans; also recorded: T. denticola
10,PF-671 (TVSAFRTVH; Peptide with targeting and/or antimicrobial activity),S. mutans; also recorded: E. coli
